In patent publication US9493485B2, “Spirocyclic dihydro-thiazine and dihydro-oxazine BACE inhibitors, and compositions and uses thereof” (Imago Pharmaceuticals, Inc., priority 2012, dated 2016):
pIC50: −log10 of the molar value. Like-named read-outs stand apart in the source and are kept apart here.

Legend:
[1] = target: T1, BACE1 (Homo sapiens (Human), UniProt P56817); assay: BACE1 FP assay; assay type: biochemical; conditions: pH 4.5
Description: (§1) BACE1 activity can be assessed in an AlphaScreen® assay. Compounds to be assessed (e.g. compounds as described in the above examples) are serially diluted 1:4 in DMSO, then plated by diluting 10 μL of compound with 40 μl of assay buffer (1×PBS, 0.01% Tween-20, pH 7.0, 0.05% BSA). The diluted compound is transferred (4 μL per well) to a 386 well assay plate and 4 μL of BACE1 enzyme ([…]) is added and incubated for 15 minutes. This assay uses a probe that is a BACE1 binding sight ligand linked to biotin, which can be displaced by test compound dependent on compound binding affinity. This of biotinylated probe (4 μL) is added and incubated for 1 hour, followed with 4 μL of donor and acceptor bead mixture and incubated for 2 hours. The fluorescent signal is read on a plate reader and the value as a function of compound concentration is used to determine the IC50. Compounds are also assessed for BACE1 and Cathepsin D activity using an FP Assay. Compounds to be assessed (e.g. compounds as described in the above examples) are serially diluted 1:3 with DMSO and each concentration point is transferred to a 96 well plate, 6 μL per well, followed by addition of 194 μL of assay buffer (100 mM sodium acetate, pH 4.5 with 0.001% Tween-20). A 10 μL compound sample from this plate is transferred to a well of a 384 well plate and combined with 10 μL per well of BACE1 enzyme (0.3 nM in assay buffer) or Cathepsin D enzyme (1.8 nM in assay buffer) and the plate is incubated at room temperature for 30 minutes.

[2] = target: Cathepsin D (Homo sapiens (Human), UniProt P07339); assay: Cathepsin D FP assay; assay type: biochemical; conditions: pH 4.5, read-out: CatD FP IC50
Sequence of Cathepsin D (P07339 65-412, species assumed): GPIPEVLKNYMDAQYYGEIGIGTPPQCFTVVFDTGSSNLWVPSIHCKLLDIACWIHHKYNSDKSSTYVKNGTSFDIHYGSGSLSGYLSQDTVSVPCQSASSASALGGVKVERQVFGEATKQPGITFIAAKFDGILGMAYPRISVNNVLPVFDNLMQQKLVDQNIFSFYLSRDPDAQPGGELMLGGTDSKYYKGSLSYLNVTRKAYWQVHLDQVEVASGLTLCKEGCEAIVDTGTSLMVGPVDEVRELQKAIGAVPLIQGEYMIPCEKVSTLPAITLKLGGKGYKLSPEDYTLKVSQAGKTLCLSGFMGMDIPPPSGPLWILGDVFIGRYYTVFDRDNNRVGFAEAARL
Description: as §1

[3] = target: T1, BACE1; assay: BACE1 AlphaScreen assay (displacement of biotinylated BACE1 binding site probe); conditions: read-out: BACE1 AS IC50
Description: as §1

[4] = tested on: BACE1 inhibition in HEKp293 cells transfected with APP751 gene (SWE293); assay: SWE293 cellular assay: reduction of Aβ peptide production, ELISA; assay type: cell-based; conditions: Homo sapiens, read-out: SWE293 ED50
Description: BACE1 inhibition is also assessed in a cellular assay. HEKp293 cells transfected with APP751 gene (SWE293, American Type Culture Collection CRL-1563) are used to assess compounds for reduction in levels of Aβ peptide production. SWE293 cell medium is DMEM supplemented with 10% fetal bovine serum and 2 mM L-glutamine, 1.0 mM sodium pyruvate, 25 mM Hepes Buffer, 0.4 mg/mL geneticin (G418, Gibco BRL 860-181IIJ). Cells are maintained diluting 1:10 for 4 days in T-150 flask and 35 mL of cell media. For plating, cells are rinsed with 5 mL of 1×PBS, trypsinized with 4 mL of 0.05% Tripsin for 1 minute, and 12 mL of cell media is added. These are centrifuged at 1000 rpm for 4 minutes and the media aspirated, then 8 mL of media per flask is added. Based on cell count, appropriate amounts of cell and cell media are combined, and 180 μl per well are plated (96 well) and the plates are incubated overnight at 37° C., 5% CO2. Compounds to be tested are serially diluted 1:3 in DMSO and twice in media (without G418) in V-bottom plates and incubated at room temperature. Plated cells are washed with media, 3×50 μL per well and 17 μL per well of appropriate dilution of compound is added. Plates are incubated for 2 hours, and the wash steps, compound addition and incubation are repeated. Sample is transferred to capture plate (prepared with 266 antibody, see e.g. Johnson-Wood et al., PNAS February 1997, 94: 1550-1555), along with a standard curve of Aβ-40. ELISA assay is used to assess Aβ levels, washing with TBS, 0.05% Tween20 pH 7.5, then adding 1.3 mg/mL 3D6 antibody 1:900 in specimen diluents with thimericol is added (100 μl per well) and incubated for 1 hour. Wash step is repeated and Streptavidin-AP diluted 1:1000 in specimen diluents with thimerisol is added (100 μL per well) and incubated for 1 hour. Wash step is repeated and fluorescent substrate is added, 100 μL per well and incubated for 10 minutes followed by reading the fluorescent signal on a plate reader.

[5] = dose at which Aβ level is reduced by 50%, HEKp293 SWE293 cells

T1 sequence (P56817 46-501): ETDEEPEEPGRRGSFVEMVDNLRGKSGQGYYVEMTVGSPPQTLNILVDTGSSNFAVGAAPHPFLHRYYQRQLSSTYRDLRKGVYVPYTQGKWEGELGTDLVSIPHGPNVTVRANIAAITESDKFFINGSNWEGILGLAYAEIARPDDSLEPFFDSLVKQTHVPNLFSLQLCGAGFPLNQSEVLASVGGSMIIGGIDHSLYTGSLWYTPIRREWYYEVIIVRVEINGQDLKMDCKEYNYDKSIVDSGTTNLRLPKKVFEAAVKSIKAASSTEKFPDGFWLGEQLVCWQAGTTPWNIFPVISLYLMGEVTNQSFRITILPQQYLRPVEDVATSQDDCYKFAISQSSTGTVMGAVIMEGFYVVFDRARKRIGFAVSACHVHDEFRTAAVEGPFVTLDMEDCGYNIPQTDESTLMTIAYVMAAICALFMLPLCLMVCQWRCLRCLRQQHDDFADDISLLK

SMILES | pIC50 [1] | pIC50 [2] | pIC50 [3] | pIC50 [4, 5] | pIC50 [4]
C[C@@]1(c2cc(NC(=O)c3ncc(Cl)cc3F)ccc2F)CC2(CCC(F)(F)CC2)OC(N)=N1 [Compound 9-133, (S)—N-(3-(2-amino-9,9-difluoro-4-methyl-1-oxa-3-azaspiro[5.5]undec-2-en-4-yl)-4-fluorophenyl)-5-chloro-3-fluoropicolinamide] | 7.80 | < 4.52 | 8.05 | 7.80 | 
CC#Cc1cncc(-c2csc([C@@]3(C)CC4(CCOCC4)OC(N)=N3)c2)c1 [Compound 8-105, (R)-4-methyl-4-(4-(5-(prop-1-ynyl)pyridin-3-yl)thiophen-2-yl)-1,9-dioxa-3-azaspiro[5.5]undec-2-en-2-amine] | 4.07 | 5.28 | 5.88 |  | 5.13
C[C@@]1(c2cc(NC(=O)c3ccc(Cl)cn3)ccc2F)CC2(CCOCC2)OC(N)=N1 [Compound 9-122, (S)—N-(3-(2-amino-4-methyl-1,9-dioxa-3-azaspiro[5.5]undec-2-en-4-yl)-4-fluorophenyl)-5-chloropicolinamide] | 7.23 | < 4.52 | 7.92 |  | 8.40
Cc1nc(C(=O)Nc2ccc(F)c(C3(C)N=C(N)OC4(CCC4)C3(F)F)c2)co1 (stereo not shown) [Compound 9-165, N-(3-(6-amino-9,9-difluoro-8-methyl-5-oxa-7-azaspiro[3.5]non-6-en-8-yl)-4-fluorophenyl)-2-methyloxazole-4-carboxamide] | 6.30 | < 4.52 | 7.47 | 6.75 | 
COc1cc(Cl)ccc1C(=O)Nc1ccc(F)c([C@]2(C)CC3(CCC3)OC(N)=N2)c1 [Compound 9-140, (S)—N-(3-(6-amino-8-methyl-5-oxa-7-azaspiro[3.5]non-6-en-8-yl)-4-fluorophenyl)-4-chloro-2-methoxybenzamide] | 5.04 |  | 7.00 |  | 6.47
C[C@@]1(c2cc(Nc3ncnc4cc(Cl)ccc34)ccc2F)CC2(CCC2)OC(N)=N1 [Compound 11-173, (S)-8-(5-(7-chloroquinazolin-4-ylamino)-2-fluorophenyl)-8-methyl-5-oxa-7-azaspiro[3.5]non-6-en-6-amine] | 5.07 |  |  | 6.16 | 
COc1cnc(C(=O)Nc2ccc(F)c([C@]3(C)CC4(CCOCC4)SC(N)=N3)c2)cn1 [Compound 9-153, (S)—N-(3-(2-amino-4-methyl-9-oxa-1-thia-3-azaspiro[5.5]undec-2-en-4-yl)-4-fluorophenyl)-5-methoxypyrazine-2-carboxamide] | 7.48 | < 4.52 |  | > 6.91 | 
C[C@@]1(c2cc(NC(=O)c3ccc(C#N)cn3)ccc2F)N=C(N)OC2(CCC2)C1(F)F [Compound 9-163, (S)—N-(3-(6-amino-9,9-difluoro-8-methyl-5-oxa-7-azaspiro[3.5]non-6-en-8-yl)-4-fluorophenyl)-5-cyanopicolinamide] | 4.42 |  | 4.87 |  | < 4.52
C[C@]1(c2cc(NC(=O)c3ccc(Cl)cn3)ccc2F)CC2(CCOCC2)SC(N)=N1 [Compound 9-152, (R)—N-(3-(2-amino-4-methyl-9-oxa-1-thia-3-azaspiro[5.5]undec-2-en-4-yl)-4-fluorophenyl)-5-chloropicolinamide] | 5.81 | 4.97 |  |  | 
C[C@@]1(c2cc(NC(=O)c3ccc(C(F)(F)F)cn3)ccc2F)CC2(CCC(F)(F)CC2)OC(N)=N1 [Compound 9-132, (S)—N-(3-(2-amino-9,9-difluoro-4-methyl-1-oxa-3-azaspiro[5.5]undec-2-en-4-yl)-4-fluorophenyl)-5-(trifluoromethyl)picolinamide] |  |  | 8.22 |  | 7.96
C[C@@]1(c2cc(NCc3ccc(F)cn3)ccc2F)CC2(CCC2)OC(N)=N1 [Compound 10-169, (S)-8-(2-fluoro-5-((5-fluoropyridin-2-yl)methylamino)phenyl)-8-methyl-5-oxa-7-azaspiro[3.5]non-6-en-6-amine] | 3.75 |  | 5.43 |  | 5.25
C[C@@]1(c2cc(/C=C/c3ccc(F)cc3)ccc2F)CC2(CCC2)OC(N)=N1 [Compound 12-177, (S,E)-8-(2-fluoro-5-(4-fluorostyryl)phenyl)-8-methyl-5-oxa-7-azaspiro[3.5]non-6-en-6-amine] | 4.66 |  | 5.94 |  | 5.92
C[C@@]1(c2cc(NC(=O)c3ccc(F)cn3)ccc2F)N=C(N)OC2(CCOCC2)C1(F)F [Compound 9-156, (S)—N-(3-(2-amino-5,5-difluoro-4-methyl-1,9-dioxa-3-azaspiro[5.5]undec-2-en-4-yl)-4-fluorophenyl)-5-fluoropicolinamide] | < 4.52 |  | < 4.52 |  | < 4.52
CC1(c2cc(NC(=O)c3ccc(F)cn3)ccc2F)CC2(CCCCC2)SC(N)=N1 (stereo not shown) [Compound 9-142, N-(3-(2-amino-4-methyl-1-thia-3-azaspiro[5.5]undec-2-en-4-yl)-4-fluorophenyl)-5-fluoropicolinamide] |  |  |  | 7.92 | 

Now from value to compound, other results behind:

pIC50 [1] | pIC50 [2] | SMILES | pIC50 [3] | pIC50 [4, 5] | pIC50 [4]
5.33 |  | C[C@@]1(c2cc(/C=C/c3ccc(Cl)cc3)ccc2F)CC2(CCC2)OC(N)=N1 [Compound 12-179, (S,E)-8-(5-(4-chlorostyryl)-2-fluorophenyl)-8-methyl-5-oxa-7-azaspiro[3.5]non-6-en-6-amine] | 6.29 | 5.87 | 
5.07 | 4.67 | C[C@]1(c2cc(NC(=O)c3ccc(F)cn3)ccc2F)CC2(CCOCC2)SC(N)=N1 [Compound 9-149, (R)—N-(3-(2-amino-4-methyl-9-oxa-1-thia-3-azaspiro[5.5]undec-2-en-4-yl)-4-fluorophenyl)-5-fluoropicolinamide] | < 6.00 |  | 
6.64 |  | CC#Cc1cncc(-c2csc(C3(C)CC4(COC4)SC(N)=N3)c2)c1 (stereo not shown) [Compound 8-112, 8-methyl-8-(4-(5-(prop-1-ynyl)pyridin-3-yl)thiophen-2-yl)-2-oxa-5-thia-7-azaspiro[3.5]non-6-en-6-amine] | 7.77 | 6.65 | 
 | < 4.52 | COc1cnc(C(=O)Nc2ccc(F)c(C3(C)N=C(N)OC4(CCC4)C3(F)F)c2)cn1 (stereo not shown) [Compound 9-164, N-(3-(6-amino-9,9-difluoro-8-methyl-5-oxa-7-azaspiro[3.5]non-6-en-8-yl)-4-fluorophenyl)-5-methoxypyrazine-2-carboxamide] |  | 6.71 | 
5.63 |  | C[C@@]1(c2cc(NC(=O)C3CC3)ccc2F)CC2(CCC(F)(F)CC2)OC(N)=N1 [Compound 9-134, (S)—N-(3-(2-amino-9,9-difluoro-4-methyl-1-oxa-3-azaspiro[5.5]undec-2-en-4-yl)-4-fluorophenyl)cyclopropanecarboxamide] | 6.10 | 6.05 | 
5.74 |  | C[C@@]1(c2cc(NC(=O)c3ccc(C4CC4)cn3)ccc2F)CC2(CCC(F)(F)CC2)OC(N)=N1 [Compound 9-137, (S)—N-(3-(2-amino-9,9-difluoro-4-methyl-1-oxa-3-azaspiro[5.5]undec-2-en-4-yl)-4-fluorophenyl)-5-cyclopropylpicolinamide] | 7.77 | 7.06 | 
